Measurements reported in patent US20240384268A1, “Oligonucleotides” (Hudson Institute of Medical Research, priority 2021, published 2024).
In the oligonucleotide strings, read from the 5' end, every base follows the letter of its sugar. An asterisk marks phosphorothioate; unmarked linkages are phosphodiester. Other units and linkages are bracketed, terminal groups are in braces. A string of capitals states the bases alone. m = 2'-O-methyl

Target: T1, human TLR9 (Homo sapiens, UniProt Q9NR96)
T1 construct: HA; host or cells: 293XL-hTLR9-HA (HEK293)
T1 sequence (Q9NR96 26-1032): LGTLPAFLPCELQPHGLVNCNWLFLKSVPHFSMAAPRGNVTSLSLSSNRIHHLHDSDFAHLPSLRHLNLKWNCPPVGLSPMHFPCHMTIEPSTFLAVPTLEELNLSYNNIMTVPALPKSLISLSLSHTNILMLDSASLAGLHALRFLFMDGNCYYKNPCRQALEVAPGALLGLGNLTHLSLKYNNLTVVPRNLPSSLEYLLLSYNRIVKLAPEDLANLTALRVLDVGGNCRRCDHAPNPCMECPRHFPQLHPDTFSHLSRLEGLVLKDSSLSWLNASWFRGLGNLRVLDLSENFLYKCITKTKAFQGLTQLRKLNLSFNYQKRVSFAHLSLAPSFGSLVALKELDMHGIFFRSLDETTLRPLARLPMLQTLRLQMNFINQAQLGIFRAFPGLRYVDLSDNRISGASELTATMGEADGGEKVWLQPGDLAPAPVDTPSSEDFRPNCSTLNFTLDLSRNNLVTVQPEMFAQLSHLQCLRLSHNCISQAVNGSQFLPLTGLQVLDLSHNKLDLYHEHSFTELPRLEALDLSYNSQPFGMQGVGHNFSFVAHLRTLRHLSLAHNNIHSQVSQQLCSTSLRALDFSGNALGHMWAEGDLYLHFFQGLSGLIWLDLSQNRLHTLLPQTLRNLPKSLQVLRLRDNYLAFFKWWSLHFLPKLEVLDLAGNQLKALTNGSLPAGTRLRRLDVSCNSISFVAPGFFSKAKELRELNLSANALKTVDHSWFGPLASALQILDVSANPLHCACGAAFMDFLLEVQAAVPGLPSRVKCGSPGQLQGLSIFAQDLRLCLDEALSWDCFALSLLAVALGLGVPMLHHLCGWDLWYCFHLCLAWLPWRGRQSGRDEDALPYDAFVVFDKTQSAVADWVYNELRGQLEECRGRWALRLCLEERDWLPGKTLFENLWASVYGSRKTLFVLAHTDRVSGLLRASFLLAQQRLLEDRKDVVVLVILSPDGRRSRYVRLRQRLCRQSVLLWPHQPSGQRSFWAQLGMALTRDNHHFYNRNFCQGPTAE
Assay: HEK-TLR9 NF-κB-luciferase reporter, ODN2006 stimulation
Assay type: cell-based
Conditions: for TLR9 2 uM: 3mer 2'OMe ASO at 2 uM, HEK-TLR9, value relative to Ligand only = 1.000, NT = 0.000; for TLR9 100 nM (averaged NF-κB-Luciferase level relative to ODN2006 condition): ASO 100 nM; for TLR9 100 nM (averaged NF-κB-Luciferase level relative to ODN2006 condition) / TLR9 500 nM (averaged NF-κB-Luciferase level relative to ODN2006 condition): relative to ODN2006 only, given as fraction; for TLR9 500 nM (averaged NF-κB-Luciferase level relative to ODN2006 condition): ASO 500 nM

| Substance | TLR9 2 uM | TLR9 100 nM (averaged NF-κB-Luciferase level relative to ODN2006 condition) | TLR9 500 nM (averaged NF-κB-Luciferase level relative to ODN2006 condition) |
| --- | --- | --- | --- |
| AAU (antisense mA*mA*mU) | 0.884 | – | – |
| ACACTTCGTGGGGTCC (antisense; LNA-modified, pattern not given here) [HPRT LNA-665 V1] | – | 0.241 | 0.001 |
| ACU (antisense mA*mC*mU) | 0.996 | – | – |
| AGU (antisense mA*mG*mU) | 0.840 | – | – |
| AUA (antisense mA*mU*mA) | 0.944 | – | – |
| AUG (mA*mU*mG) | 0.878 | – | – |
| AUU (mA*mU*mU) | 0.864 | – | – |
| CAACACTTCGTGGGGT (antisense; LNA-modified, pattern not given here) [HPRT LNA-667 V1] | – | 0.733 | 0.395 |
| CAU (mC*mA*mU) | 0.921 | – | – |
| CCAAGATCAGCAGTCT (antisense; LNA-modified, pattern not given here) [CTNN2B-2341 LNA KL] | – | 1.424 | 0.669 |
| CCATCCATGAGGTCCT (antisense; LNA-modified, pattern not given here) [CTNN2B-2545 LNA V1] | – | 1.383 | 0.476 |
| CCU (mC*mC*mU) | 1.180 | – | – |
| CGU (mC*mG*mU) | 1.237 | – | – |
| CUA (mC*mU*mA) | 1.182 | – | – |
| CUC (mC*mU*mC) | 0.966 | – | – |
| CUG (mC*mU*mG) | 0.948 | – | – |
| GATAGCACCTTCAGCA (antisense; LNA-modified, pattern not given here) [CTNN2B-1294 LNA KL] | – | 0.804 | 0.560 |
| GCAGGCTCAGTGATGT (antisense; LNA-modified, pattern not given here) [CTNN2B-1642 LNA V1] | – | 1.036 | 0.228 |
| GCATCCACCACGTCGT (antisense; LNA-modified, pattern not given here) [EGFR-3267 LNA V1] | – | 0.556 | 0.375 |
| GCCATCCACTTGATAG (antisense; LNA-modified, pattern not given here) [EGFR-2874 LNA V1] | – | 0.772 | 0.589 |

| Substance | TLR9 2 uM | TLR9 100 nM (averaged NF-κB-Luciferase level relative to ODN2006 condition) | TLR9 500 nM (averaged NF-κB-Luciferase level relative to ODN2006 condition) |
| --- | --- | --- | --- |
| GCCATGCTGGCTCGGA (antisense; LNA-modified, pattern not given here) [CAMSAP1-2584 LNA V1] | – | 0.879 | 0.147 |
| GCCATGTTTCTTCTTG (antisense; LNA-modified, pattern not given here) [MB21D1-1248 LNA KL] | – | 0.163 | 0.070 |
| GCU (mG*mC*mU) | 1.429 | – | – |
| GGCTGGAATCCGAGTT (antisense; LNA-modified, pattern not given here) [EGFR-4705 LNA KL] | – | 1.051 | 0.492 |
| GGTTACGGCTCAGTAT (antisense; LNA-modified, pattern not given here) [CAMSAP1-4295 LNA KL] | – | 0.943 | 0.400 |
| GGU (mG*mG*mU) | 1.177 | – | – |
| GTATCGAAAGAGTCTG (antisense; LNA-modified, pattern not given here) [EGFR-3908 LNA KL] | – | 1.429 | 0.647 |
| GTCCCCTGTTGACTGG (antisense; LNA-modified, pattern not given here) [HPRT LNA-489 KL] | – | 0.387 | 0.326 |
| GTCTTGGCTTCGTGGA (antisense; LNA-modified, pattern not given here) [MB21D1-522 LNA V1] | – | 0.745 | 0.392 |
| GTGTCTGGAAGCTTCC (antisense; LNA-modified, pattern not given here) [CTNN2B-809 LNA V1] | – | 0.493 | 0.613 |
| GTTCAGTCCTGTCCAT (antisense; LNA-modified, pattern not given here) [HPRT LNA-292 V1] | – | 1.081 | 0.382 |
| TCCAACACTTCGTGGG (antisense; LNA-modified, pattern not given here) [HPRT LNA-669 V1] | – | 0.623 | 0.473 |
| TCGTAGTTGCTTCCTA (antisense; LNA-modified, pattern not given here) [MB21D1-1181 LNA KL] | – | 0.987 | 0.224 |
| TGATGGCCTCCCATCT (antisense; LNA-modified, pattern not given here) [HPRT LNA-332 V1] | – | 0.770 | 0.153 |
| TGCACACTTCGTACCC (antisense; LNA-modified, pattern not given here) [CAMSAP1-4916 LNA V1] | – | 0.283 | 0.244 |
| TGGCCTCCCATCTCCT (antisense; LNA-modified, pattern not given here) [HPRT LNA-329 V1] | – | 0.743 | 0.277 |
| TGTGATGGCCTCCCAT (antisense; LNA-modified, pattern not given here) [HPRT LNA-334 V1] | – | 0.818 | 0.431 |
| TTCGTGGGGTCCTTTT (antisense; LNA-modified, pattern not given here) [HPRT LNA-661 V1] | – | 0.963 | 0.523 |
| TTTTGGCTGGGATCAA (antisense; LNA-modified, pattern not given here) [CAMSAP1-4697 LNA KL] | – | 0.985 | 0.169 |
| UAA (mU*mA*mA) | 1.176 | – | – |

| Substance | TLR9 2 uM | TLR9 100 nM (averaged NF-κB-Luciferase level relative to ODN2006 condition) | TLR9 500 nM (averaged NF-κB-Luciferase level relative to ODN2006 condition) |
| --- | --- | --- | --- |
| UAC (mU*mA*mC) | 0.997 | – | – |
| UAG (mU*mA*mG) | 0.977 | – | – |
| UAU (mU*mA*mU) | 1.145 | – | – |
| UCC (mU*mC*mC) | 1.106 | – | – |
| UCU (mU*mC*mU) | 0.876 | – | – |
| UGC (mU*mG*mC) | 1.198 | – | – |
| UGU (mU*mG*mU) | 1.085 | – | – |
| UUA (mU*mU*mA) | 0.912 | – | – |
| UUC (mU*mU*mC) | 0.770 | – | – |
| UUG (listed as RNA, chemistry not fully specified) | 0.816 | – | – |
| UUU (mU*mU*mU) | 0.936 | – | – |
| dA*dA*dA (DNA AAA; listed as DNA, chemistry not fully specified) | 0.845 | – | – |
| dA*dA*dC (DNA AAC; listed as DNA, chemistry not fully specified) | 0.931 | – | – |
| dA*dA*dG (DNA AAG; listed as DNA, chemistry not fully specified) | 0.870 | – | – |
| dA*dC*dA (DNA ACA; listed as RNA, chemistry not fully specified) | 1.042 | – | – |
| dA*dG*dA (DNA AGA; listed as DNA, chemistry not fully specified) | 0.848 | – | – |
| dA*dG*dC (DNA AGC; listed as DNA, chemistry not fully specified) | 0.749 | – | – |
| dC*dA*dA (CAA; listed as DNA, chemistry not fully specified) | 0.917 | – | – |
